Measured values published in ChEMBL document CHEMBL3217623, “Tacrine-mefenamic acid hybrids for inhibition of acetylcholinesterase” (Medchemcomm, 2011).
The source made the active and inactive calls. The rule behind the calls is not given here.

How the values were obtained:
[1] = biological target: T1, Acetylcholinesterase (Torpedo californica, UniProt P04058); assay: Inhibition of Torpedo californica […] AChE using acetylthiocholine/DTNB as substrate preincubated for 10 mins followed by substrate addition measured every 30 secs for 30 mins by Ellmans method; set-up: species or system Tetronarce californica
T1 sequence (P04058 whole entry): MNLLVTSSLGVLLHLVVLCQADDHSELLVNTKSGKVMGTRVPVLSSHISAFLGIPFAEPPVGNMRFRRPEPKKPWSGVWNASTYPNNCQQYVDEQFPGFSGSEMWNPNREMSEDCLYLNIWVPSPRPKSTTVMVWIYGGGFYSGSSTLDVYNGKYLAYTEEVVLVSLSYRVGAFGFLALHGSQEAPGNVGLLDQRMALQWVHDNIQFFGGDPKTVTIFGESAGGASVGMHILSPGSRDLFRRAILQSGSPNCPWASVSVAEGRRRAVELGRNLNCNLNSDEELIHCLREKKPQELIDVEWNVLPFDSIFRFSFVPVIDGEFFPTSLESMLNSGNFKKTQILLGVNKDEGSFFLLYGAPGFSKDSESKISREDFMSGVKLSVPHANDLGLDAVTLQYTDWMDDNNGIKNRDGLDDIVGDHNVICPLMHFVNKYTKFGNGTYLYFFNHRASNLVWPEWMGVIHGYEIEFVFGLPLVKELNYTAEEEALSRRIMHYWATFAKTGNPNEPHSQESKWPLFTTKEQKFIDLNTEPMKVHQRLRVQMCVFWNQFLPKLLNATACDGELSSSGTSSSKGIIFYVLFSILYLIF

[2] = biological target: T1, Acetylcholinesterase; assay: Inhibition of Torpedo californica […] AChE using acetylthiocholine/DTNB as substrate assessed as ROS-induced enzyme inactivation preincubated for 10 mins followed by substrate addition measured every 30 secs for 20 mins in presence of horseradish peroxidase and H2O2; set-up: species or system Tetronarce californica
[3] = biological target: Acetylcholinesterase (Torpedo californica) (UniProt P04058); assay: Non-competitive inhibition of Torpedo californica […] AChE using acetylthiocholine as substrate at 0.2 to 5 uM measured for 2 mins by Lineweaver-Burk plot analysis; details: Tetronarce californica
Chain of Acetylcholinesterase (Torpedo californica) (P04058 22-564 limits assumed): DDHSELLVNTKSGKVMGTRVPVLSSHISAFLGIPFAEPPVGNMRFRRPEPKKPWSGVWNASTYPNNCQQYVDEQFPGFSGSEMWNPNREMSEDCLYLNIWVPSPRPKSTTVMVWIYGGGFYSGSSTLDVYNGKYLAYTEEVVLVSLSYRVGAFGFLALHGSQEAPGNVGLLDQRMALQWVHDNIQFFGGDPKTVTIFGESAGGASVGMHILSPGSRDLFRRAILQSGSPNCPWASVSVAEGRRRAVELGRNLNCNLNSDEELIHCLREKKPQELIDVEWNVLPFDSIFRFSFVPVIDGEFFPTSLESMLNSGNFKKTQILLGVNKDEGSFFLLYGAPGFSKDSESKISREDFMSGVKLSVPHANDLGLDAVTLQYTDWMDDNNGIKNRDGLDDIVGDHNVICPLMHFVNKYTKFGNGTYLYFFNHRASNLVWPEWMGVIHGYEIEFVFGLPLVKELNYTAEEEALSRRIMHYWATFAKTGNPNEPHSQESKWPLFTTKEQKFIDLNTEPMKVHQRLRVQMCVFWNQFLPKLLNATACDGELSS

Row | Compound | IC50 [1] | IC50 [2] | inhibition [3]
1 | Cc1cccc(Nc2ccccc2C(=O)NCCCCCC(=O)NCCCCCCCNc2c3c(nc4cc(Cl)ccc24)CCCC3)c1C | 0.0111 µM | 13.4 nM | –
2 | Cc1cccc(Nc2ccccc2C(=O)NCC(=O)NCCCCCCCCNc2c3c(nc4cc(Cl)ccc24)CCCC3)c1C | 0.0398 µM | 18.1 nM | –
3 | Cc1cccc(Nc2ccccc2C(=O)NCCC(=O)NCCCCCCCCNc2c3c(nc4ccccc24)CCCC3)c1C | 0.00858 µM | 4.07 nM | –
4 | Cc1cccc(Nc2ccccc2C(=O)NCCCCCCCCNc2c3c(nc4ccccc24)CCCC3)c1C | 0.0755 µM | 0.045 nM | –
5 | Cc1cccc(Nc2ccccc2C(=O)NCCCCCCCNc2c3c(nc4ccccc24)CCCC3)c1C | 0.00139 µM | 25.2 nM | –
6 | Cc1cccc(Nc2ccccc2C(=O)NCC(=O)NCCCCCCCNc2c3c(nc4cc(Cl)ccc24)CCCC3)c1C | 0.000418 µM | 0.009 nM | –
7 | Cc1cccc(Nc2ccccc2C(=O)NCCCC(=O)NCCCCCCCNc2c3c(nc4ccccc24)CCCC3)c1C | 0.00809 µM | 44.6 nM | –
8 | Cc1cccc(Nc2ccccc2C(=O)NCC(=O)NCCCCCCNc2c3c(nc4cc(Cl)ccc24)CCCC3)c1C | 0.00765 µM | 3.46 nM | –
9 | Cc1cccc(Nc2ccccc2C(=O)NCC(=O)NCCCCCCCNc2c3c(nc4ccccc24)CCCC3)c1C | 0.00555 µM | 15.3 nM | –
10 | Cc1cccc(Nc2ccccc2C(=O)NCCCCCC(=O)NCCCCCCNc2c3c(nc4ccccc24)CCCC3)c1C | 1.44 µM | 34 nM | –
11 | Cc1cccc(Nc2ccccc2C(=O)NCCCCCC(=O)NCCCCNc2c3c(nc4cc(Cl)ccc24)CCCC3)c1C | 0.0374 µM | 0.299 nM | –
12 | Cc1cccc(Nc2ccccc2C(=O)NCCCCCCNc2c3c(nc4ccccc24)CCCC3)c1C | 0.00224 µM | 0.129 nM | –
13 | CN(C)C(=O)Oc1cccc([N+](C)(C)C)c1 [NEOSTIGMINE] | 0.0046 µM | – | –
14 | Cc1cccc(Nc2ccccc2C(=O)NCCCCCC(=O)NCCCCCCNc2c3c(nc4cc(Cl)ccc24)CCCC3)c1C | 0.00294 µM | 7.39 nM | –
15 | Cc1cccc(Nc2ccccc2C(=O)O)c1C [MEFENAMIC ACID] | > 1250 µM | 6120 nM | –
16 | Cc1cccc(Nc2ccccc2C(=O)NCCC(=O)NCCCNc2c3c(nc4cc(Cl)ccc24)CCCC3)c1C | 0.0203 µM | 21.3 nM | –
17 | Cc1cccc(Nc2ccccc2C(=O)NCCCCCC(=O)NCCCNc2c3c(nc4cc(Cl)ccc24)CCCC3)c1C | 0.00165 µM | 7.85 nM | –
18 | Cc1cccc(Nc2ccccc2C(=O)NCCCC(=O)NCCCCCCNc2c3c(nc4ccccc24)CCCC3)c1C | 0.195 µM | 29.9 nM | –
19 | Cc1cccc(Nc2ccccc2C(=O)NCC(=O)NCCCCNc2c3c(nc4ccccc24)CCCC3)c1C | 0.262 µM | 53.6 nM | –

Row | Compound | IC50 [1] | IC50 [2] | inhibition [3]
20 | Cc1cccc(Nc2ccccc2C(=O)NCC(=O)NCCCNc2c3c(nc4ccccc24)CCCC3)c1C | 0.0873 µM | 47.5 nM | –
21 | Cc1cccc(Nc2ccccc2C(=O)NCCCCCCNc2c3c(nc4cc(Cl)ccc24)CCCC3)c1C | 7.23 µM | 1.02 nM | –
22 | Cc1cccc(Nc2ccccc2C(=O)NCCC(=O)NCCCCCCCNc2c3c(nc4cc(Cl)ccc24)CCCC3)c1C | 0.00667 µM | 10 nM | –
23 | Cc1cccc(Nc2ccccc2C(=O)NCCC(=O)NCCCCCCCNc2c3c(nc4ccccc24)CCCC3)c1C | 0.0139 µM | 1.02 nM | –
24 | Cc1cccc(Nc2ccccc2C(=O)NCC(=O)NCCCNc2c3c(nc4cc(Cl)ccc24)CCCC3)c1C | 0.0281 µM | 3.1 nM | –
25 | Cc1cccc(Nc2ccccc2C(=O)NCCC(=O)NCCCCNc2c3c(nc4cc(Cl)ccc24)CCCC3)c1C | 2.47 µM | 33 nM | –
26 | Cc1cccc(Nc2ccccc2C(=O)NCCCC(=O)NCCCCCCNc2c3c(nc4cc(Cl)ccc24)CCCC3)c1C | 0.0417 µM | 15.6 nM | –
27 | Cc1cccc(Nc2ccccc2C(=O)NCCCC(=O)NCCCCCCCCNc2c3c(nc4cc(Cl)ccc24)CCCC3)c1C | 0.017 µM | 6.59 nM | –
28 | Cc1cccc(Nc2ccccc2C(=O)NCCCC(=O)NCCCCNc2c3c(nc4ccccc24)CCCC3)c1C | 0.0897 µM | 14.6 nM | –
29 | Cc1cccc(Nc2ccccc2C(=O)NCCCCCCCCCNc2c3c(nc4cc(Cl)ccc24)CCCC3)c1C | 0.00694 µM | 6.72 nM | –
30 | Cc1cccc(Nc2ccccc2C(=O)NCCCCCC(=O)NCCCCCCCNc2c3c(nc4ccccc24)CCCC3)c1C | 0.0036 µM | 3.66 nM | –
31 | Cc1cccc(Nc2ccccc2C(=O)NCCCCCC(=O)NCCCCCCCCNc2c3c(nc4cc(Cl)ccc24)CCCC3)c1C | 0.0801 µM | 8.67 nM | –
32 | Cc1cccc(Nc2ccccc2C(=O)NCC(=O)NCCCCCCCCNc2c3c(nc4ccccc24)CCCC3)c1C | 0.0033 µM | 17.2 nM | –
33 | Cc1cccc(Nc2ccccc2C(=O)NCCCCCC(=O)NCCCNc2c3c(nc4ccccc24)CCCC3)c1C | 0.811 µM | 20.2 nM | –
34 | Cc1cccc(Nc2ccccc2C(=O)NCCCCCCCCNc2c3c(nc4cc(Cl)ccc24)CCCC3)c1C | 0.000495 µM | 1.49 nM | –
35 | Cc1cccc(Nc2ccccc2C(=O)NCCC(=O)NCCCCNc2c3c(nc4ccccc24)CCCC3)c1C | 0.426 µM | 2.43 nM | –
36 | Cc1cccc(Nc2ccccc2C(=O)NCCCCCCCCCCCCNc2c3c(nc4ccccc24)CCCC3)c1C | 0.0509 µM | 6.94 nM | –
37 | Cc1cccc(Nc2ccccc2C(=O)NCCC(=O)NCCCNc2c3c(nc4ccccc24)CCCC3)c1C | 3.8 µM | 7.92 nM | –
38 | Cc1cccc(Nc2ccccc2C(=O)NCCCCCCCCCCNc2c3c(nc4cc(Cl)ccc24)CCCC3)c1C | 0.000776 µM | 1.85 nM | –

Row | Compound | IC50 [1] | IC50 [2] | inhibition [3]
39 | Cc1cccc(Nc2ccccc2C(=O)NCCCCCC(=O)NCCCCCCCCNc2c3c(nc4ccccc24)CCCC3)c1C | 0.0187 µM | 6.26 nM | –
40 | Cc1cccc(Nc2ccccc2C(=O)NCC(=O)NCCCCNc2c3c(nc4cc(Cl)ccc24)CCCC3)c1C | 0.156 µM | 89.4 nM | –
41 | CN(C)C(=O)Oc1ccc[n+](C)c1 [PYRIDOSTIGMINE] | 0.082 µM | – | –
42 | Cc1cccc(Nc2ccccc2C(=O)NCCCCCCCCCCCCNc2c3c(nc4cc(Cl)ccc24)CCCC3)c1C | 2.36 µM | 16.2 nM | –
43 | Cc1cccc(Nc2ccccc2C(=O)NCCCCCCCCCNc2c3c(nc4ccccc24)CCCC3)c1C | 0.00154 µM | 15.1 nM | –
44 | Cc1cccc(Nc2ccccc2C(=O)NCCCC(=O)NCCCNc2c3c(nc4ccccc24)CCCC3)c1C | 3.73 µM | 23 nM | –
45 | Cc1cccc(Nc2ccccc2C(=O)NCCCCCCCCCCNc2c3c(nc4ccccc24)CCCC3)c1C | 0.385 µM | 0.908 nM | Active
46 | Cc1cccc(Nc2ccccc2C(=O)NCCCC(=O)NCCCCNc2c3c(nc4cc(Cl)ccc24)CCCC3)c1C | 0.0136 µM | 12.4 nM | –
47 | Cc1cccc(Nc2ccccc2C(=O)NCCCC(=O)NCCCCCCCNc2c3c(nc4cc(Cl)ccc24)CCCC3)c1C | 0.00791 µM | 6.55 nM | –
48 | Cc1cccc(Nc2ccccc2C(=O)NCC(=O)NCCCCCCNc2c3c(nc4ccccc24)CCCC3)c1C | 0.0183 µM | 54.8 nM | –
49 | Cc1cccc(Nc2ccccc2C(=O)NCCCCCC(=O)NCCCCNc2c3c(nc4ccccc24)CCCC3)c1C | 1.86 µM | 34 nM | –
50 | Cc1cccc(Nc2ccccc2C(=O)NCCC(=O)NCCCCCCNc2c3c(nc4ccccc24)CCCC3)c1C | 0.985 µM | 40.2 nM | –
51 | Cc1cccc(Nc2ccccc2C(=O)NCCC(=O)NCCCCCCNc2c3c(nc4cc(Cl)ccc24)CCCC3)c1C | 0.00114 µM | 2.96 nM | –
52 | Cc1cccc(Nc2ccccc2C(=O)NCCCC(=O)NCCCNc2c3c(nc4cc(Cl)ccc24)CCCC3)c1C | 0.00713 µM | 1.03 nM | –
53 | Cc1cccc(Nc2ccccc2C(=O)NCCCC(=O)NCCCCCCCCNc2c3c(nc4ccccc24)CCCC3)c1C | 0.0174 µM | 14.6 nM | –
54 | Cc1cccc(Nc2ccccc2C(=O)NCCCCCCCNc2c3c(nc4cc(Cl)ccc24)CCCC3)c1C | 1.38 µM | 29.8 nM | –
55 | Cc1cccc(Nc2ccccc2C(=O)NCCC(=O)NCCCCCCCCNc2c3c(nc4cc(Cl)ccc24)CCCC3)c1C | 0.0183 µM | 4.97 nM | –
56 | Clc1c2c(nc3ccccc13)CCCC2 | > 25 µM | 83.9 nM | –
57 | Clc1ccc2c(Cl)c3c(nc2c1)CCCC3 | > 50 µM | – | –
